From US20260265525A1, “DEVELOPMENT OF HIGHLY FLUOROGENIC STYRENE PROBES FOR VISUALIZING RNA IN LIVE CELLS” (UNIVERSITY OF SOUTHERN CALIFORNIA, priority 2023, published 2026)

What was measured:
torula yeast type IV RNA = test: Quantum yield and fluorescence enhancement of dyes incubated with RNA; format: binding; settings: for quantum yield in RNA solution: 10 μM dye, 200 μg/mL RNA in T.E. buffer; for fluorescence enhancement upon binding RNA: ratio of quantum yield of dye in RNA solution over free dye
Protocol: To determine the fluorescence change of 1a-1d in the presence of RNA, the dyes (10 μM) were incubated with torula yeast type IV RNA in T.E. buffer and measured the spectral and photophysical parameters as described above. Fold-enhancement values were calculated by taking the ratio of the quantum yield of dyes in RNA solution over free dyes.
(§1) Coumarin 6 was used as a reference dye for MPI, 1a, and 1b and Rhodamine 6G was used as a reference for 1c and 1d. Absorption spectra were collected by Shimadzu UV-1800 spectrophotometer. Samples were loaded in plastic disposable cuvette. Emission spectra were obtained by Photon Technology International QuantaMaster model C-60 Fluorimeter in 1×1 cm^2 quartz cuvettes. Fluorescence quantum yields were then calculated according to the method by Lawson-wood, Upstone, and Evans. (58) The torula yeast type IV RNA (Sigma) solution was prepared as a 200 μg/mL solution in T.E. buffer (Tris-HCl, EDTA, pH 7.6, Bioworld) without sonicating to avoid shearing of nucleic acids. All measurements were taken using samples with a final dye concentration of 10 μM.

[1] = Spectral and photophysical characterization of free dyes in T.E. buffer; format: physicochemical; settings: for Stokes shift / molar absorptivity: T.E. buffer; for emission wavelength (maximum) / fluorescence quantum yield of free dye / maximum absorbance wavelength: free dye in T.E. buffer
Protocol: After the synthesis of the styrene dyes, their photophysical properties were evaluated. The spectral and photophysical properties (absorption, emission, molar absorptivity (ε), fluorescence quantum yield (ΦDF), and fluorescence enhancement) of probes 1a-1d were measured in DMSO and T.E. buffer (Tris-HCl, 1 mM EDTA, pH=7.5). FIG. 2D provides measurements of the fluorescent enhancement for several of the fluorescent probes.
as §1

live HeLa cells = test: Live-cell and time-resolved confocal imaging; format: cell-based; settings: for cellular localization of fluorescence signals: live HeLa, 20 μM, 30 min; for time after addition at which nucleoli could be clearly discerned: live cells, dye in medium
Protocol: HeLa cells were cultured at a density of 7000 cells/well on chambered glass sides and incubated at 37° C. overnight or until fully adherent. After removing the medium and washing with DPBS (Thermo Fisher), the cells were incubated with dyes in PBS (Thermo Fisher) for 30 min at 37° C. with 5% CO2 on the microscope stage and analyzed directly. Fluorescence images were acquired using a confocal microscope (Leica SP8, Leica Microsystems) and analyzed using ImageJ. MPI (20 μM) was excited at 440 nm, SYTO RNASelect (0.1-1 μM, Thermo Fisher) was excited at 490 nm, 1c (10 nM-20 μM) was excited at 550 nm, and 1d (20 μM) was excited at 500 nm.
HeLa cells were cultured on eight-well chambered glass slides (iBidi μ-slides) and incubated overnight at 37° C. with 5% CO2 until totally adherent. Staining solutions for each dye were prepared in serum-free DMEM and kept warm at 37° C. The cells were monitored from 0 to 30 min, where t=0 is the time right before the addition of the dye. Images were acquired at t=0, 0.5, 1, 2, 5, 10, 15, 20, 25, and 30 min for each dye. Fluorescence images were analyzed and quantified with ImageJ.

RNA/spermine condensates = test: Staining and FLIM imaging of RNA-spermine condensates; parameters: species or system torula yeast; settings: 10 μM
Protocol: A 1 wt % stock solution of torula yeast RNA type IV was prepared in nuclease-free water and stored in multiple aliquots at −20° C. Final concentrations of RNA ranged from 0.02 to 0.4 wt %. A 1 wt % stock solution of spermine was prepared in deionized water and stored at 4° C. The spermine (Sigma) concentration was fixed at 0.1 wt %. Dye 1c was prepared as 10 mM stock solutions in DMSO. Condensates were prepared in a 5 mM HEPES (pH 7.4, VWR), 1 mM MgCl2 buffer. Stock solutions were added in the following order for the preparation of each sample: deionized water, HEPES, MgCl2, RNA, and spermine. Samples were mixed via gentle pipetting in between the addition of each component. RNA condensates were incubated with 10 μM 1c for 1 min at room temperature. To image the condensates, 20 μL of the incubated sample was added onto a glass coverslip and mounted onto a glass slide. Images were acquired using fluorescence confocal microscopy and FLIM.

[2] = test system: RNA mixture (torula yeast RNA type IV); test: Comparison of fluorogenic response with SYTO RNASelect; format: binding; settings: same RNA species
Protocol: 100 μL of 1 μM 1c and SYTO RNASelect were diluted by 100 μL solutions of RNA mixture to reach final concentrations ranging from 0 to 1000 μg/mL. The resulting mixtures were placed in a 96-well opaque plate. The plate with the mixture was gently shaken for 5 min before being evaluated by a microplate reader (SpectraMax iD5).

fixed HeLa cells = test: Ribonuclease (RNase) digest experiment; format: cell-based; settings: fixed cells treated with RNase
Protocol: HeLa cells were cultured in six-well plates with glass coverslips and incubated at 37° C. overnight to totally adherent. The cells were fixed according to the protocol described above with minor modifications. A solution of 4% paraformaldehyde+0.1% Triton-X was prepared in PBS and used to fix and permeabilize HeLa cells. The cells were incubated with this solution for 20 min at room temperature. After rinsing the cells with PBS, the cells were stained with 1 μM 1c, 1d, or SYTO in PBS for 30 min at room temperature. After removing the staining solution, 0.5 mL of RNase ([…]) and PBS (negative control) was added into each respective well and incubated for 6 h. After incubation, the medium was removed, and the cells were thoroughly washed with PBS three times. The glass coverslips were mounted onto glass slides, sealed, and analyzed using confocal microscopy.

PFA-fixed HeLa cells = test: Fixed-cell imaging; format: cell-based; settings: HeLa fixed with 4% PFA
Protocol: HeLa cells were cultured on 6-well plates containing glass coverslips and incubated at 37° C. overnight or until fully adherent. After removing the medium and washing with DPBS, the cells were fixed with 4% paraformaldehyde for 10 min at ambient temperature. After fixation, the cells were rinsed with PBS and incubated with dye solutions in PBS for 30 min at ambient temperature. After incubation, the dye solutions were removed and cells were gently washed with PBS three times. The coverslips were mounted onto glass slides, sealed, and analyzed using confocal microscopy.

DNA from calf thymus = test: Fluorescence titration of 1c with nucleic acids or BSA; format: binding; settings: fluorogenic response with DNA vs RNA
Protocol: Solutions of torula yeast RNA type IV (RNA mixture) and DNA from calf thymus (Sigma) were prepared and stored at 4° C. overnight. Bovine serum albumin (BSA, Thermo Fisher) and Baker's yeast RNA (rRNA, Sigma) solutions were prepared at 2 h before testing. 100 μL of 1 μM 1c were diluted by corresponding substrates solution reaching concentrations ranging from 0 to 1000 μg/mL of nucleic acids or BSA. The resulting mixtures were placed in a 96-well opaque plate. The plate with the mixture was gently shaken for 5 min before being evaluated by a microplate reader.

rRNA = test: Native-PAGE gel staining; parameters: species or system Baker's yeast
Protocol: 1 L of 10×TBE running buffer was prepared by mixing 108 g of Tris Base, 55 g of boric acid, and 40 mL of 0.5 M EDTA (Apex). The combined solution was diluted to 1 L by filtered H2O. 14 mL of 8% Native-PAGE gel was prepared by mixing 0.7 mL of 10×TBE buffer, 0.14 mL of 10% APS buffer (Bio-Rad), and 3.73 mL of 30% acrylamide solution. The mixture was diluted to 14 mL with filtered water. 28 μL of TEMED (Sigma) was added to the mixture. The gel mixture was transferred into the casting frame placed in a precooled gel chamber. An 18-well cast was put on the top and left for polymerization for 15 min on ice. The gel chamber was filled with cold 0.5×TBE running buffer. The gel was pre-run at 150 V for 40 min. The RNA marker mixture was loaded (5 μL micro-RNA marker+0.4 μL low range marker (Bio-Rad) for one well). 5 μL of rRNA sample was loaded to reach rRNA amount as 1 and 10 μg. The RNA marker and rRNA sample loading had four repeats on the same gel. The gel was run at 150 V for 30 min. The cut gels were stained and shaken in 25 mL of 1×SYBR Gold (Thermo Fisher), 2 μM 1c, 20 μM 1c, and 40 μM 1c for 15 min. The gels were de-stained with 0.5×TBE buffer and shaken for 10 min. The buffer was removed, and the gels were imaged using an Amersham Typhoon Biomolecular […].

[3] = previously reported; cited from earlier work

| Compound | quantum yield in RNA solution (torula yeast type IV RNA) [%] | fluorescence enhancement upon binding RNA (torula yeast type IV RNA) [fold] | Stokes shift [1] [nm] | molar absorptivity [1] [M⁻¹ cm⁻¹] | emission wavelength (maximum) [1] [nm] | fluorescence quantum yield of free dye [1] [%] | maximum absorbance wavelength [1] [nm] | cellular localization of fluorescence signals (live HeLa cells) | time after addition at which nucleoli could be clearly discerned (live HeLa cells) [s] | localization of fluorescence signals in fixed cells (PFA-fixed HeLa cells) | absorption wavelength (reported) [3] | emission wavelength (reported) [3] | other results |
| --- | --- | --- | --- | --- | --- | --- | --- | --- | --- | --- | --- | --- | --- |
| C[n+]1ccc(/C=C/c2cc3ccccc3[nH]2)cc1.[I-] [Dye 1b] | 3.9 | 33 | 142 | 24400 | 568 | 0.12 | 410 | – | – | – | – | – | – |
| C[n+]1ccc(/C=C/c2ccc3ccccn23)cc1.[I-] [Dye 1c] | 49 | 490 | 86 | 27500 | 596 | 0.10 | 510 | primarily within the nucleoli and cytoplasm | 30 | predominantly coming from the nucleoli and cytoplasm | – | – | lowest concentration used to resolve nucleoli (live HeLa cells): 10 nM; concentration sufficient for visualizing nucleoli (dose-response study) (live HeLa cells; live HeLa cells): nanomolar concentrations; partitioning into RNA coacervates (RNA/spermine condensates): readily partitions into RNA coacervates; fluorogenic response compared with SYTO RNASelect [2]: significantly higher fluorogenic responses than SYTO™ RNASelect; dependence of nucleolar staining on RNA (fixed HeLa cells): RNA-dependent; selectivity for RNA over DNA in vitro (DNA from calf thymus): moderate selectivity for RNA over DNA; sensitivity of gel staining versus SYBR Gold (rRNA): lower than the commercial standard, SYBR Gold; staining of RNA in PAGE-gels (rRNA): can stain RNA in PAGE-gels |
| Cn1c(/C=C/c2cc[n+](C)cc2)cc2ccccc21.[I-] [Dye 1a] | 9.9 | 104 | 162 | 20600 | 584 | 0.12 | 422 | – | – | – | – | – | – |
| C[n+]1ccc(/C=C/c2ccn3ccccc23)cc1.[I-] [Dye 1d] | 50 | 132 | 86 | 34600 | 572 | 0.38 | 486 | primarily within the nucleoli and cytoplasm | 30 | predominantly coming from the nucleoli and cytoplasm | – | – | – |
| C[n+]1ccc(/C=C/c2c[nH]c3ccccc23)cc1.[I-] [IN] | – | – | – | – | – | – | – | – | – | – | ~ 440 nm | ~ 540 nm | – |
| methyl pyridinium indole [MPI] | – | – | – | – | – | – | – | – | – | – | ~ 440 nm | ~ 540 nm | fluorescence quantum yield (reported) [3]: 32% |
